# Data from article PMC8284453 (Antimicrobial Agents and Chemotherapy, 2021).
# Where “and” joins values, the source holds several entries; their conditions need not be identical. Equal values may be shown once. Read-outs that look alike come from different tables or passages of the source.
# Legend:
# [1] = system: E. cloacae ECL01 (TEM-72, ACT-1, P99AmpC); assay: Broth microdilution MIC; type: cell-based; details: Enterobacter cloacae
# [2] = system: Enterobacterales expressing class D oxacillinases (OXA-48/48-like); assay: organism not typed; type: cell-based, E. coli, K. pneumoniae
# [3] = system: E. coli ESBL4 (CTX-M-15); assay: Broth microdilution MIC; type: cell-based; details: Escherichia coli
# [4] = system: K. pneumoniae 752286 (OXA-48); assay: Broth microdilution MIC; type: cell-based; details: Klebsiella pneumoniae
# [5] = system: Enterobacterales expressing class C cephalosporinases
# [6] = system: Enterobacterales expressing class A ESBLs; assay: organism not typed; type: cell-based, E. coli, K. pneumoniae
# [7] = system: Enterobacterales expressing class A carbapenemases (KPC); assay: organism not typed; type: cell-based, K. pneumoniae, E. coli, E. cloacae, Klebsiella oxytoca
# [8] = system: K. pneumoniae ATCC BAA-1705 (KPC-2); assay: Broth microdilution MIC; type: cell-based; details: Klebsiella pneumoniae, ATCCBAA1705
# [9] = system: isogenic strains of E. coli expressing Ambler class A, B, C, and D enzymes; assay: microbe, parasite or virus in culture; type: cell-based, Escherichia coli; details: for Fold increase in MIC compared to vector control: inhibitor fixed at 4 μg/ml
# [10] = system: K. pneumoniae 752286 (OXA-48); assay: 24-h time-kill assay; type: cell-based; details: Klebsiella pneumoniae; lowest concentration with ≥3-log10 CFU/ml reduction at 24 h; read-out: MBC
# In short: (§1)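 Bacteria at 5 × 10^5 CFU/ml in CAMHB, incubated at 37°C with shaking at 200 rpm. Viable counts determined at 0, 2, 4, 6, 8 and 24 h by 0.5 log10 serial dilution with overnight regrowth; quantification limit 2 log10 CFU/ml.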
# [11] = system: E. coli ESBL4 (CTX-M-15); assay: 24-h time-kill assay; type: cell-based
# In short: as §1
# [12] = system: E. cloacae ECL01 (TEM-72, ACT-1, P99AmpC); assay: 24-h time-kill assay; type: cell-based; details: Enterobacter cloacae; lowest concentration with ≥3-log10 CFU/ml reduction at 24 h; read-out: MBC
# In short: as §1
# [13] = system: K. pneumoniae ATCC BAA-1705 (KPC-2); assay: 24-h time-kill assay; type: cell-based; details: Klebsiella pneumoniae, ATCCBAA1705; lowest concentration with ≥3-log10 CFU/ml reduction at 24 h; read-out: MBC
# In short: as §1
# [14] = system: Enterobacterales expressing class C cephalosporinases; assay: organism not typed
# [15] = 25 isolates, BLI fixed at 4 μg/ml, AMC 2:1
compound,measurement,setting,value
C[C@@H](O)[C@H]1C(=O)N2C(C(=O)O)=C(SC3CN(C4=NCCS4)C3)[C@H](C)[C@H]12 [Tebipenem],MIC,[1],0.25 µg/mL
same,MIC50,[2]; [15],4 µg/mL and 8 µg/mL
same,MIC90,[2]; [15],16 µg/mL and 32 µg/mL
same,MIC,[2]; E. coli 664507 (OXA-48),4 µg/mL
same,MIC,[2]; E. coli 664516 (OXA-48),8 µg/mL
same,MIC,[2]; E. coli 664520 (OXA-48),4 µg/mL
same,MIC,[2]; E. coli 664522 (OXA-48),8 µg/mL
same,MIC,[2]; E. coli 664523 (OXA-48),4 µg/mL
same,MIC,[2]; E. coli 664524 (OXA-48),4 µg/mL
same,MIC,[2]; E. coli 664525 (OXA-48),8 µg/mL
same,MIC,[2]; E. coli 664526 (OXA-48),4 µg/mL
same,MIC,[2]; E. coli 664528 (OXA-48),4 µg/mL
same,MIC,[2]; E. coli 787112 (OXA-48),8 µg/mL
same,MIC,[2]; E. coli SI-422 (OXA-48),1 µg/mL
same,MIC,[2]; E. coli VER (OXA-48),1 µg/mL
same,MIC,[2]; K. pneumoniae 6299 (OXA-163),4 µg/mL
same,MIC,"[2]; K. pneumoniae 515746 (OXA-48), first line",1 µg/mL
same,MIC,"[2]; K. pneumoniae 515746 (OXA-48), second line",0.5 µg/mL
same,MIC,[2]; K. pneumoniae 664438 (OXA-48),8 µg/mL
same,MIC,[2]; K. pneumoniae 664439 (OXA-48),4 µg/mL
same,MIC,[2]; K. pneumoniae 664509 (OXA-48),≥ 64 µg/mL
same,MIC,[2]; K. pneumoniae 664518 (OXA-48),4 µg/mL
same,MIC,[2]; K. pneumoniae 722870 (OXA-48),1 µg/mL
same,MIC,[2]; K. pneumoniae BAH (OXA-204),0.5 µg/mL
same,MIC,[2]; K. pneumoniae DEL (OXA-232),≥ 64 µg/mL
same,MIC,[2]; K. pneumoniae DOV (OXA-48),0.5 µg/mL
same,MIC,[2]; K. pneumoniae KIRK (OXA-162),1 µg/mL
same,MIC,[2]; K. pneumoniae SI-C17 (OXA-48),16 µg/mL
same,MIC,[3],≤ 0.06 µg/mL
same,MIC,[4],16 µg/mL
same,MIC,"[5]; C. freundii 134390 (AmpC, TEM-1)",0.03 µg/mL
same,MIC,"[5]; E. aerogenes 110099 (AmpC, SHV-12)",0.12 µg/mL
same,MIC,"[5]; E. aerogenes 111707 (AmpC, TEM-1)",0.03 µg/mL
same,MIC,"[5]; E. aerogenes 111902 (AmpC, TEM-1)",0.12 µg/mL
same,MIC,"[5]; E. coli 128 (AmpC, SHV-12, TEM-1, Toho-2)",≤ 0. 016 μg/ml
same,MIC,"[5]; E. coli 3102 (AmpC, CTX-M-15, TEM-1)",≤ 0. 016 μg/ml
same,MIC,"[5]; E. coli CH1 (AmpC, CTX-M-15, SHV-1, SHV-5, TEM-1)",0.06 µg/mL
same,MIC,"[5]; E. coli EC469 (AmpC, SHV-12, TEM-1)",≤ 0. 016 μg/ml
same,MIC,"[5]; E. coli J53 (AmpC, SHV-5, TEM-1)",≤ 0. 016 μg/ml
same,MIC,"[5]; E. coli SI-P026TC (CMY-2, TEM-1)",0.12 µg/mL
same,MIC,"[5]; E. coli SI-PO26 (AmpC, CMY-2, TEM-1)",0.03 µg/mL
same,MIC,"[5]; K. pneumoniae 129032 (MOX-2, SHV-12, TEM-1)",0.03 µg/mL
same,MIC,"[5]; K. pneumoniae 178279 (AmpC, SHV-12, TEM-1)",0.03 µg/mL
same,MIC,"[5]; K. pneumoniae 212027 (AmpC, FOX-5, TEM-1)",0.03 µg/mL
same,MIC,"[5]; K. pneumoniae 217917 (CMY-2, TEM-1)",0.06 µg/mL
same,MIC,"[5]; K. pneumoniae 301313 (AmpC, SHV-12, TEM-1)",0.06 µg/mL
same,MIC,"[5]; K. pneumoniae 398845 (CMY-2, SHV-12, TEM-1)",0.03 µg/mL
same,MIC,"[5]; K. pneumoniae SI-F100 (CMY-2, SHV-5, TEM-1)",≤ 0. 016 μg/ml
same,MIC,"[5]; P. mirabilis SI-F014 (AmpC, TEM-72)",2 µg/mL
same,MIC,"[5]; S. marcescens 132253 (AmpC, CTX-M-3, OXA-1, SHV-12, TEM-1)",0.5 µg/mL
same,MIC,"[5]; S. marcescens 134434 (AmpC, SHV-12, TEM-1)",0.5 µg/mL
same,MIC,"[5]; S. marcescens 142397 (AmpC, SHV-7, TEM-1)",0.25 µg/mL
same,MIC,"[5]; S. marcescens 156212 (AmpC, SHV-12, TEM-1)",0.25 µg/mL
same,MIC,"[5]; S. marcescens 192478 (AmpC, SHV-12, TEM-1)",0.12 µg/mL
same,MIC,"[5]; S. marcescens 218068 (AmpC, SHV-7, TEM-1)",0.25 µg/mL
same,MIC50,[6],0.03 µg/mL
same,MIC90,[6],0.06 µg/mL
same,MIC range,[6]; [15],≤0.016 to 0.12 µg/mL
same,MIC50,[7],≥ 64 µg/mL
same,MIC90,[7],≥ 64 µg/mL
same,MIC50,[7]; [15],≥64 µg/mL
same,MIC90,[7]; [15],≥64 µg/mL
same,MIC,[7]; E. cloacae 847426 (KPC),≥ 64 µg/mL
same,MIC,[7]; E. cloacae 847429 (KPC),≥ 64 µg/mL
same,MIC,"[7]; E. cloacae OIMGH49 (p99 AmpC, ACT-2, KPC-2, TEM-1)",32 µg/mL
same,MIC,[7]; E. coli 786978 (KPC),≥ 64 µg/mL
same,MIC,[7]; K. oxytoca 847537 (KPC),≥ 64 µg/mL
same,MIC,[7]; K. oxytoca 847539 (KPC),8 µg/mL
same,MIC,"[7]; K. pneumoniae 155140 (AmpC, KPC-2, SHV-12, TEM-1)",≥ 64 µg/mL
same,MIC,[7]; K. pneumoniae 845661 (KPC),≥ 64 µg/mL
same,MIC,[7]; K. pneumoniae 845662 (KPC),≥ 64 µg/mL
same,MIC,[7]; K. pneumoniae 845665 (KPC),≥ 64 µg/mL
same,MIC,[7]; K. pneumoniae 845667 (KPC),≥ 64 µg/mL
same,MIC,[7]; K. pneumoniae 845670 (KPC),32 µg/mL
same,MIC,[7]; K. pneumoniae 845904 (KPC),≥ 64 µg/mL
same,MIC,[7]; K. pneumoniae 847204 (KPC),≥ 64 µg/mL
same,MIC,[7]; K. pneumoniae 847375 (KPC),≥ 64 µg/mL
same,MIC,[7]; K. pneumoniae 847378 (KPC),≥ 64 µg/mL
same,MIC,[7]; K. pneumoniae 847379 (KPC),16 µg/mL
same,MIC,[7]; K. pneumoniae 847383 (KPC),≥ 64 µg/mL
same,MIC,[7]; K. pneumoniae 847384 (KPC),≥ 64 µg/mL
same,MIC,[7]; K. pneumoniae 847387 (KPC),≥ 64 µg/mL
same,MIC,[7]; K. pneumoniae 847747 (KPC),≥ 64 µg/mL
same,MIC,[7]; K. pneumoniae 848832 (KPC),≥ 64 µg/mL
same,MIC,[7]; K. pneumoniae 848844 (KPC),≥ 64 µg/mL
same,MIC,[7]; K. pneumoniae 897067 (KPC),32 µg/mL
same,MIC,"[7]; K. pneumoniae UMM (KPC-2, SHV-5, TEM-1)",32 µg/mL
same,MIC,[8],32 µg/mL
same,Fold increase in MIC compared to vector control,[9]; E. coli expressing ACT-17 (class C),4
same,Fold increase in MIC compared to vector control,[9]; E. coli expressing CMY-2 (class C),4
same,Fold increase in MIC compared to vector control,[9]; E. coli expressing CMY-42 (class C),16
same,Fold increase in MIC compared to vector control,[9]; E. coli expressing CTX-M-15 (class A),4
same,Fold increase in MIC compared to vector control,[9]; E. coli expressing GES-5 (class A),512
same,Fold increase in MIC compared to vector control,[9]; E. coli expressing KPC-3 D179Y (class A),8
same,Fold increase in MIC compared to vector control,[9]; E. coli expressing NDM-1 (class B),"2,048"
same,Fold increase in MIC compared to vector control,[9]; E. coli expressing OXA-23 (class D),128
same,Fold increase in MIC compared to vector control,[9]; E. coli expressing OXA-48 (class D),256
same,Fold increase in MIC compared to vector control,[9]; E. coli expressing OXA-163 (class D),32
same,Fold increase in MIC compared to vector control,[9]; E. coli expressing OXA-181 (class D),256
same,Fold increase in MIC compared to vector control,[9]; E. coli expressing P99/AmpC (class C),8
same,Fold increase in MIC compared to vector control,[9]; E. coli expressing PER-1 (class A),4
same,Fold increase in MIC compared to vector control,[9]; E. coli expressing SHV-5 (class A),4
same,Fold increase in MIC compared to vector control,[9]; E. coli expressing SHV-12 (class A),4
same,Fold increase in MIC compared to vector control,"[9]; E. coli expressing TEM-10 (class A), modal MIC, 4 replicates",4
same,Fold increase in MIC compared to vector control,[9]; E. coli expressing VEB-9 (class A),2
same,MIC,"[9]; Escherichia coli, read-out: Vector control MIC",0.016 µg/mL
same,MBC,[10],> 32 µg/mL
same,MBC,"[11]; Escherichia coli, lowest concentration with ≥3-log10 CFU/ml reduction at 24 h, read-out: MBC",0.06 µg/mL
same,outcome of 24-h time-kill assay,"[11]; Fig. 3a, CTB 2 μg/ml with BLI at 4 μg/ml, CTB alone 8 μg/ml, amoxicillin 8/clavulanic acid 4 μg/ml, penems 2 μg/ml",bactericidal activity
same,MBC,[12],0.25 µg/mL
same,MBC,[13],32 µg/mL
same,MIC50,[14],0.06 µg/mL
same,MIC90,[14],0.5 µg/mL
